The values below come from publication PMC5429698, “Biochemical analysis of leishmanial and human GDP-Mannose Pyrophosphorylases and selection of inhibitors as new leads” (Scientific Reports, 2017).

SMILES strings stand for the structures. Values joined by “and” are separate entries in the source; they are usually repeats but may differ in a detail not shown here. Identical values can stand only once. Like-named read-outs stand apart in the source and are kept apart here.

In general, IC50 refers to the midpoint of a concentration-inhibition curve. The CC50 is the concentration at which the toxic effect on the cells reaches its halfway point. As usually defined, the Ki is the dissociation constant of the complex between target and ligand, obtained from inhibition or displacement. High values mean a looser hold on the target, low ones a stronger hold on the target.

In data set [1] the test system is L. major intramacrophage amastigotes. Also on record: method as in PMID 20160053. Particulars: cited from earlier work.
Data set [2] can be described thus: Cytotoxicity (resazurin). In kind it is cell-based. Particulars: mouse, RAW264.7 macrophages; 48 h incubation; read-out: Cytotoxicity CC50 (µM) ± SD RAW264.7 macrophages. The method, then:
(§1) Cells were plated in 96-well microplates at a density of 2 × 10^4 cells per well. After an incubation of 24 h at 37 °C with 5% CO2 for RAW264.7 cells or at 37 °C with 7% CO2 for BMDM, the medium was removed in each well, and 100 µl of DMEM complete medium containing two fold serial dilutions of the compounds was added to each well. […] Cell viability was then monitored as described above.
A general note: Resazurin is reduced to fluorescent resorufin, in cell work by metabolically active cells.

The subject of data set [3] is L. donovani intramacrophage amastigotes in infected RAW.264.7 macrophages. Nature of the data set: Antileishmanial evaluation on intramacrophage amastigotes, RAW264.7 host. The data set is classed as cell-based. Conditions: for IC50: 48 h treatment, read-out: IC50 (µM) ± SD L. donovani infected RAW.264.7 macrophages. The method, then:
(§2) Concerning the evaluation on intramacrophage amastigotes, RAW 264.7 macrophages (from ATCC) and bone marrow derived macrophages (BMDM) were plated in 96-well microplates at a density of 2 × 10^4 cells per well and incubated for 24 h at 37 °C with 5% CO2 for RAW264.7 cells or at 37 °C with 7% CO2 for BMDM. Axenic amastigotes were differenciated as described above, centrifuged at 2,000 g for 10 min, resuspended in DMEM complete medium, and added to each well to reach a 16:1 parasite to macrophage ratio. After 24 h of infection at 37 °C with 5% CO2 for RAW264.7 cells or at 37 °C with 7% CO2 for BMDM, extracellular parasites were removed, and DMEM complete medium (100 µl) containing two fold serial dilutions of the compounds from a maximal concentration of 100 µM was added to each well. After 48 h of treatment, the medium was removed and replaced by DirectPCR Lysis Reagent (100 µl; Euromedex) before 3 freeze-thaw cycles at room temperature, addition of 50 µg/ml proteinase K, and a final incubation at 55 °C overnight to allow cell lysis. 10 µl of each cell extract was then added to 40 µl of DirectPCR Lysis reagent containing Sybr Green I (0.05%; Invitrogen). DNA fluorescence was monitored using Mastercycler® realplex (Eppendorf). The activity of the compounds was expressed as IC50. Miltefosine was used as the reference drug.

Data set [4] relates to L. mexicana intramacrophage amastigotes in infected RAW.264.7 macrophages. Kind of data set: microbe, parasite or virus in culture. In kind it is cell-based. Particulars: for IC50: 48 h treatment, read-out: IC50 (µM) ± SD L. mexicana infected RAW.264.7 macrophages. The method, then: as §2
For data set [5], the system named is L. mexicana intramacrophage amastigotes in infected BMDM. Nature of the data set: microbe, parasite or virus in culture. The data set is classed as cell-based. As for the experimental part:
as §2

The subject of data set [6] is inorganic pyrophosphatase. Kind of data set: Control for false positives on inorganic pyrophosphatase alone. Particulars: compound at 100 µM, same conditions as the GDP-MP assay. In kind it is biochemical. The method, then:
(§3) Enzyme activity was measured as described above in the presence of 100 µM of compounds and the percentage of inhibition was calculated in reference to untreated enzyme. As a control, compounds were evaluated in parallel in the same conditions on inorganic pyrophosphatase alone in order to discard false-positives. […] Furthermore, no effect was observed on the activity of the three purified GDP-MPs with 1% DMSO, corresponding to the maximal solvent concentration used at 100 µM of compound. Compounds presenting a minimum of 50% inhibition on a leishmanial GDP-MP were subsequently selected to determine their type of inhibition and their K i values. Inhibition data were fitted to competitive, non-competitive or uncompetitive models of enzyme inhibition by non linear least squares regression analysis using GraphPad Prism 6.0.

The test system of data set [7] is L. donovani intramacrophage amastigotes in infected BMDM. Nature of the data set: Antileishmanial evaluation on intramacrophage amastigotes, BMDM host. In kind it is cell-based. The method, then:
as §2

Data set [8] concerns leishmanial GDP-MP (LdGDP-MP and/or LmGDP-MP). Kind of data set: Screen of the 100 compound library at 100 µM on purified leishmanial GDP-MPs. The data set is classed as biochemical, Leishmania. Conditions: compound at 100 µM. The method, then:
(§4) GDP-MP catalyzes the following reaction: Man‐1‐P+GTP→GDP−Mannose+Pyrophosphate The reaction media were buffered at pH optima and contained optimal concentrations of Man-1-P, GTP, GDP-MP and Mg^2+ determined for each purified GDP-MP (Fig. 2d), supplemented with DTT (1 mM). Inorganic pyrophosphatase, which hydrolyses the inorganic pyrophosphates generated by the GDP-MPs in inorganic phosphates, was added at 0.1 U/ml (Sigma-Aldrich). Inorganic pyrophosphatase was added in excess to the reaction medium in order to minimize the probability that the putative inhibitors of GDP-MPs interfere with this enzyme. The reaction was initiated by the addition of GDP-MP, and was stopped after adding 100 µl of revelation buffer containing malachite green (0.03% w/v), ammonium molybdate (0.2% w/v) and Triton X-100 (0.05% v/v) in HCl (0.7 M) for 5 min at the optimal temperature. The quantity of inorganic phosphate generated, representing GDP-MP activity, was determined by measuring OD650nm (Lab systems Multiskan MS). The molar extinction coefficient ε of the end product detected was determined by measuring OD650nm with a range of inorganic phosphate concentrations diluted in the revelation buffer and was calculated at 27207 M^−1 cm^−1 (Supplementary Fig. S2). The kinetic constants K m, V m and k cat were determined by non linear regression using GraphPad Prism 6.0.
as §3

Another data set has as its target LdGDP-MP (Leishmania donovani, UniProt E9BG32). Kind of data set: biochemical. Particulars: Man-1-P 10-100 µM, GTP 100 µM. The method, then: as §4, with “The reaction was initiated by the addition of GDP-MP, and was stopped after adding 100 µl of revelation buffer containing malachite green (0.03% w/v), ammonium molybdate (0.2% w/v) and Triton X-100 (0.05% v/v) in HCl (0.7 M) for 5 min at the optimal temperature.” left out
(§5) Enzyme activity was measured as described above in the presence of 100 µM of compounds and the percentage of inhibition was calculated in reference to untreated enzyme. […]

The next data set has as its target T1, hGDP-MP (Homo sapiens, UniProt Q9Y5P6).
T1 construct: made in house; host or cells: E. coli BL21(DE3), co-transformed with chaperone plasmid pG-KJE3
Kind of data set: GDP-MP enzymatic assay (malachite green) on purified hGDP-MP. The data set is classed as biochemical. Conditions: Man-1-P 10-100 µM, GTP 100 µM. The method, then: as §4, with “The reaction was initiated by the addition of GDP-MP, and was stopped after adding 100 µl of revelation buffer containing malachite green (0.03% w/v), ammonium molybdate (0.2% w/v) and Triton X-100 (0.05% v/v) in HCl (0.7 M) for 5 min at the optimal temperature.” left out
as §5

Another data set has as its system L. major GDP-MP. Also on record: method as in PMID 20160053. Particulars: high throughput screening; cited from earlier work.
Data set [9] in a line: Cytotoxicity (resazurin). Particulars: Balb/c, mouse, bone marrow derived macrophages (BMDM); 48 h incubation; read-out: Cytotoxicity CC50 (µM) ± SD BMDM. In kind it is cell-based, Balb/c mice. As for the experimental part: as §1
Data set [10] relates to L. mexicana axenic amastigotes. Nature of the data set: Antileishmanial evaluation on axenic amastigotes (resazurin). The data set is classed as cell-based. Particulars: 72 h treatment, 32 °C, read-out: IC50 (µM) ± SD L. mexicana axenic amastigotes. The method, then:
(§6) The evaluations of activity on axenic and intramacrophage amastigotes were adapted from the protocols previously described. Briefly, for the evaluation on axenic amastigotes, two fold serial dilutions of the compounds from a maximal concentration of 100 µM were performed in 100 µl of complete medium (see above) in 96-well microplates. Axenic amastigotes were then added to each well at a density of 10^6/ml in a 200 µl final volume. After 72 h of treatment at 37 °C for L. donovani or at 32 °C for L. mexicana with 5% CO2, 20 µl of resazurin (450 µM) was added to each well and further incubated in the dark for 24 h at 37 °C for L. donovani or at 32 °C for L. mexicana with 5% CO2. In living cells, resazurin is reduced in resorufin and this conversion is monitored by measuring OD570nm (resorufin) and OD600nm (resazurin; Lab systems Multiskan MS). The activity of the compounds was expressed as IC50. Miltefosine was used as the reference drug.

In data set [11] the test system is L. donovani axenic amastigotes. The data set is described as above. The data set is classed as cell-based. Particulars: 72 h treatment, 37 °C, read-out: IC50 (µM) ± SD L. donovani axenic amastigotes. As for the experimental part: as §6
The mark [12] stands for this setting: CC50 RAW264.7 / IC50 infected RAW264.7.

T1 sequence (Q9Y5P6 whole entry): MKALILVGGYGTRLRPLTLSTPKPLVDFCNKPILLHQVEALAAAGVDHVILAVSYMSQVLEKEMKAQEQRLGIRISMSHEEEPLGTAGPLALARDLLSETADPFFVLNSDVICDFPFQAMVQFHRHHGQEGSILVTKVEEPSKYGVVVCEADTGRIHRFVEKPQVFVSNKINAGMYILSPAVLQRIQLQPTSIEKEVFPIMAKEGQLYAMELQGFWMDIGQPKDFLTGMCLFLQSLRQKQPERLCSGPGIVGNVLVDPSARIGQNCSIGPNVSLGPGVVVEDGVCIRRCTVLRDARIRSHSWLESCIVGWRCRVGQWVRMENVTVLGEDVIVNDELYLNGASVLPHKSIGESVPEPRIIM
Chain of LdGDP-MP (E9BG32 entry or part of it): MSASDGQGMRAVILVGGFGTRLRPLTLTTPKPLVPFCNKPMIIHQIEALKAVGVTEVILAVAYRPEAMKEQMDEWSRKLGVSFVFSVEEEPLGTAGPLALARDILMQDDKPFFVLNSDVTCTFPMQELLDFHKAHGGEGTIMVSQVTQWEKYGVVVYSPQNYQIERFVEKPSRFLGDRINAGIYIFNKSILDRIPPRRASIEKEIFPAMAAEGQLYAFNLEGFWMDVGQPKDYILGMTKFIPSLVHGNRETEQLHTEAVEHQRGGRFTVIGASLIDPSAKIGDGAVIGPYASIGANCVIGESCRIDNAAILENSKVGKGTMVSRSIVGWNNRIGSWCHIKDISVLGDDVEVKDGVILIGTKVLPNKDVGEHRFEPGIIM

Regarding `CC(C)(C)c1ccc(CN2CCN(c3ccnc4cc(Cl)ccc34)CC2)cc1` [compound 100, reference compound], the half-maximal inhibitory concentration (IC50) in data set [1] was 21.9 µM; in data set [3] it was 19.5 ± 4.53 µM; in data set [3] (Leishmania donovani, RAW264.7, 48 h), 20 to 27.5 µM; in data set [4], 27.5 ± 2.23 µM; in data set [4] (Leishmania mexicana, RAW264.7, 48 h), 20 to 27.5 µM; in data set [5] (Leishmania mexicana, BMDM, 48 h, 48 h treatment, read-out: IC50 (µM) ± SD L. mexicana infected BMDM), 12.1 ± 1.27 µM. In addition, the half-maximal inhibitory concentration (IC50) in data set [7] (Leishmania donovani, BMDM, 48 h treatment, read-out: IC50 (µM) ± SD L. donovani infected BMDM) was 12.2 ± 4.74 µM; in the data set on L. major GDP-MP it was 0.58 µM; in data set [10], 49.25 ± 0.26 µM; in [10] (Leishmania mexicana, 72 h) it was 30 to 50 µM; in data set [11], 30.7 ± 6.62 µM; in [11] (Leishmania donovani, 72 h), 30 to 50 µM. For the same compound, the CC50 at 48 h in the data set “Cytotoxicity (resazurin) [2]” is 62.1 ± 7.39 µM; in the data set “Cytotoxicity (resazurin) [9]”, 51.4 ± 3.45 µM. In addition, in data set [3] (setting [12]), the “Selectivity index (CC50/IC50) L. donovani RAW264.7 macrophages” value is recorded as 3.2. Further, the “Selectivity index (CC50/IC50) L. mexicana RAW264.7 macrophages” value in data set [4] (setting [12]) is reported as 2.3. For the same compound, the “Selectivity index (CC50/IC50) L. mexicana BMDM” value in [5] (CC50 BMDM / IC50 infected BMDM) is given as 4.3. The “inhibition of inorganic pyrophosphatase” value in [6] is listed as < 5%. The “Selectivity index (CC50/IC50) L. donovani BMDM” value in data set [7] (CC50 BMDM / IC50 infected BMDM) is reported as 4.2. Besides, in data set [8], the “enzyme inhibition on a leishmanial GDP-MP” value is “above 50%”. For the same compound, the Ki at LdGDP-MP was 61.8 ± 16.3 µM; on hGDP-MP it was 19.7 µM and ~20 µM.
